As usually defined, the IC50 is the concentration that inhibits the measured activity by half. The low end stands for higher potency, the high end for lower potency.

SMILES strings stand for the structures.

For this assay, the target named is T1, Kinesin-like protein KIF18A (Homo sapiens, UniProt Q8NI77).
T1 sequence (Q8NI77 whole entry): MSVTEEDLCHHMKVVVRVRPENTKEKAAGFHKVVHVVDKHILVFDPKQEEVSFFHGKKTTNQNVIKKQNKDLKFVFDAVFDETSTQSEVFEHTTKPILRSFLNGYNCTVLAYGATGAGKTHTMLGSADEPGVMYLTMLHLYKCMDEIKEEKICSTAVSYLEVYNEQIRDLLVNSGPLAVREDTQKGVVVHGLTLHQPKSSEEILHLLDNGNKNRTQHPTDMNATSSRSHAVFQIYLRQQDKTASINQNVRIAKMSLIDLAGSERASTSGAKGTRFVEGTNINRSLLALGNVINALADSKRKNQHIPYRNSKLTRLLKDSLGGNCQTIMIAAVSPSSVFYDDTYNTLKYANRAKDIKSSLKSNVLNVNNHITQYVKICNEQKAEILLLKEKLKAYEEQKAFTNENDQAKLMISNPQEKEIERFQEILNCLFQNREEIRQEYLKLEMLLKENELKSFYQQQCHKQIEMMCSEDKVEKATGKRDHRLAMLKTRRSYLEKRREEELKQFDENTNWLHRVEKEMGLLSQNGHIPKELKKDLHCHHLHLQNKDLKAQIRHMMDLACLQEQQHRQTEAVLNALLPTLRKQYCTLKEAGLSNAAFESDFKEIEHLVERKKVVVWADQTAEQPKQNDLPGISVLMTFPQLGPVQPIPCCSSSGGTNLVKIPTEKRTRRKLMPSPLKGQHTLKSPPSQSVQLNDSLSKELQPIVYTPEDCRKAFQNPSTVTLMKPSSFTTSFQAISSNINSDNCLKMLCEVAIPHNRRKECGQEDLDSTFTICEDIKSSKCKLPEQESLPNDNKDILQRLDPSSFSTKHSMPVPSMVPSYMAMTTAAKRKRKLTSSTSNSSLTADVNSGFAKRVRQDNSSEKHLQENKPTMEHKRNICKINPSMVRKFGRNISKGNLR
Nature of the assay: Inhibition of KIF18A Microtubule-Dependent ATPase Activity. As for the experimental part:
Table 9: Test compounds were plated in a 3× dilution scheme in a 384-well plate. […] After incubation at room temperature for 30 min, 2.5 μL of microtubule mix was added [0.2 mg/mL pre-formed microtubules, 2.0 mM ATP in assay buffer], the plate was centrifuged for 30 s and then incubated at 28° C. for 60 min. 5 μL of Promega ADP-Glo Max R1 was added, the plate was centrifuged for 30 s, and the mixture incubated for 4 h at room temperature. 10 μL of Promega ADP-Glo Max R2 was added, the plate centrifuged for 30 s, and incubated for 60 min at room temperature. Luminescence was measured with an Envision plate reader, and % Inhibition was calculated for each well as: ([max−min]−[test−min])/[max−min]. IC50 values were calculated from concentration vs. % Inhibition data via a four-parameter variable slope model.
Compound `Cn1nc(S(=O)(=O)NC(C)(C)C)cc1C(=O)N1CC2(CCCCC2)c2cc(NS(C)(=O)=O)ccc21` [US12084420, Compound 59] displayed a 50% inhibitory concentration (IC50) of 1000 nM.

Compound `CS(=O)(=O)Nc1ccc2c(c1)C1(CCC3(CC3)CC1)CN2C(=O)c1cccc(S(=O)(=O)NC2CC3CC3C2)c1` (configuration not stated) [US12084420, Compound 254] gave a half-maximal inhibitory concentration (IC50) of 10 nM.

Consider `CC(C)(C)NS(=O)(=O)c1cc(C(=O)N2CC3(CCCCC3)c3cc(NS(C)(=O)=O)ccc32)cs1` [US12084420, Compound 231], for which the midpoint of inhibition, the IC50, lay at 8.7 nM.

Consider `CC(C)(C)NS(=O)(=O)c1cc(C(=O)N2CC3(CCC4(CC4)CC3)c3cc(NS(C)(=O)=O)ccc32)co1` [US12084420, Compound 319], for which the IC50 was 1200 nM.

Consider `CCC(C)(C)NS(=O)(=O)c1cccc(C(=O)N2CC3(CCC4(CC4)CC3)c3cc(NS(C)(=O)=O)ccc32)c1` [US12084420, Compound 266], for which the concentration for half-maximal inhibition (IC50) is 16 nM.

For the compound `CC(C)(CO)NS(=O)(=O)c1cccc(C(=O)N2CC3(CCC4(CC4)CC3)c3cc(NS(C)(=O)=O)ccc32)c1` [US12084420, Compound 220], the half-maximal inhibitory concentration (IC50) was 16 nM.

With `CS(=O)(=O)Nc1ccc2c(c1)C1(CCC3(CC3)CC1)CN2C(=O)c1cccc(S(=O)(=O)N2CCC(C(F)F)C2)c1` (configuration not stated) [US12084420, Compound 247], the 50% inhibitory concentration (IC50) was determined as 21 nM.

Compound `CC(C)(C)NS(=O)(=O)c1cccc(C(=O)N2CC3(CCC4(CC4)CC3)c3cc(NS(=O)(=O)CCF)ccc32)c1` [US12084420, Compound 365] returned an IC50 of 13 nM.

`O=C(c1cccc(S(=O)(=O)N2CCC(F)(F)CC2)c1)N1CC2(CCCC2)c2cc(NS(=O)(=O)CCO)ccc21` [US12084420, Compound 27] returned an IC50 of 83 nM.

`CC(C)(C)NS(=O)(=O)c1csc(C(=O)N2CC3(CCCCC3)c3cc(NS(C)(=O)=O)ccc32)c1` [US12084420, Compound 147]: 43 nM corresponded to half-maximal inhibition (IC50).

In turn, `CS(=O)(=O)Nc1ccc2c(c1)C1(CCC3(CC3)CC1)CN2C(=O)c1cccc(/C=N/N2CCCCC2)c1` [US12084420, Compound 318] registered an IC50 of 930 nM.

Take `C=C1CCC1NS(=O)(=O)c1cccc(C(=O)N2CC3(CCC4(CC4)CC3)c3cc(NS(C)(=O)=O)ccc32)c1` (configuration not stated) [US12084420, Compound 233]: half-maximal inhibition (IC50) required 12 nM.

These data come from BindingDB's records for patent US12084420 (Volastra Therapeutics, 2024).
